Measurements: ChEMBL document CHEMBL3991601, “The target landscape of clinical kinase drugs” (Science, 2017)
Activity calls are given as the source filed them.

How the values were obtained:
[1] = target: T1, Delta(24)-sterol reductase (Homo sapiens, UniProt Q15392)
T1 sequence (Q15392 whole entry): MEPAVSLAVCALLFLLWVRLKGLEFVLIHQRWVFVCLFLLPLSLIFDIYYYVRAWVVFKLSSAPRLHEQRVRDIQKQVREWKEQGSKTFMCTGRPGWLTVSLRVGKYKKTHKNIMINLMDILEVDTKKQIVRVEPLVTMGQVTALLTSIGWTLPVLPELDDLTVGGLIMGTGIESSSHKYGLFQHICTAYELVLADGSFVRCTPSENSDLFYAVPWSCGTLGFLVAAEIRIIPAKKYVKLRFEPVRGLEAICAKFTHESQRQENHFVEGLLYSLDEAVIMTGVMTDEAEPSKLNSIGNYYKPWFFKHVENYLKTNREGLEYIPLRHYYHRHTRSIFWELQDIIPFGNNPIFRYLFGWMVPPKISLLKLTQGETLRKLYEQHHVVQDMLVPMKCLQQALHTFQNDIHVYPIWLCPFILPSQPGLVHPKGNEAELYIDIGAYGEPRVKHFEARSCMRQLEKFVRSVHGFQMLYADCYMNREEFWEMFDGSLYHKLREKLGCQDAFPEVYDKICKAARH

[2] = target: T2, Mitogen-activated protein kinase kinase kinase kinase 2 (Homo sapiens, UniProt Q12851)
T2 sequence (Q12851 whole entry): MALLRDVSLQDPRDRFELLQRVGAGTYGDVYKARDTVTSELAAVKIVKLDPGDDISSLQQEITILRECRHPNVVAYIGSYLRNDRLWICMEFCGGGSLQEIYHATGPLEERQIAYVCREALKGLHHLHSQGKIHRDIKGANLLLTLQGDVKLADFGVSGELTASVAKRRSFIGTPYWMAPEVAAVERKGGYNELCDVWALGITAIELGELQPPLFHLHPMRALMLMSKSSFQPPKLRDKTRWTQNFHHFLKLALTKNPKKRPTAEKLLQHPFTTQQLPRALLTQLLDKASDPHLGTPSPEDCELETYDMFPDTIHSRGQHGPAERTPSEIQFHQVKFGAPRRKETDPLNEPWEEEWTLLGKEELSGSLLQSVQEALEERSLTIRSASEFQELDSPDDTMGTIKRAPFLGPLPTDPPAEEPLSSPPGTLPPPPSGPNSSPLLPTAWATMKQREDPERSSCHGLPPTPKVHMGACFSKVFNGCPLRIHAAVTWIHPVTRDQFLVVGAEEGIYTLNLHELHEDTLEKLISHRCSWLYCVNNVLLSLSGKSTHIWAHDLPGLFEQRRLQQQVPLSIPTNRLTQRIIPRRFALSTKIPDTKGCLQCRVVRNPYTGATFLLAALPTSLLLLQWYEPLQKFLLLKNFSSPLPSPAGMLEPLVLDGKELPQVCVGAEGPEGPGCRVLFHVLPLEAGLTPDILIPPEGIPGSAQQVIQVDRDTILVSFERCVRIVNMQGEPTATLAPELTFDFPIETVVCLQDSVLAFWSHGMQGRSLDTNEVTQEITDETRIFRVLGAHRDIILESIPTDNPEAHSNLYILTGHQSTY

[3] = target: Myosin-14 (Homo sapiens, UniProt Q7Z406)
[4] = target: T3, Dynamin-like GTPase OPA1, mitochondrial (Homo sapiens, UniProt O60313)
T3 sequence (O60313 whole entry): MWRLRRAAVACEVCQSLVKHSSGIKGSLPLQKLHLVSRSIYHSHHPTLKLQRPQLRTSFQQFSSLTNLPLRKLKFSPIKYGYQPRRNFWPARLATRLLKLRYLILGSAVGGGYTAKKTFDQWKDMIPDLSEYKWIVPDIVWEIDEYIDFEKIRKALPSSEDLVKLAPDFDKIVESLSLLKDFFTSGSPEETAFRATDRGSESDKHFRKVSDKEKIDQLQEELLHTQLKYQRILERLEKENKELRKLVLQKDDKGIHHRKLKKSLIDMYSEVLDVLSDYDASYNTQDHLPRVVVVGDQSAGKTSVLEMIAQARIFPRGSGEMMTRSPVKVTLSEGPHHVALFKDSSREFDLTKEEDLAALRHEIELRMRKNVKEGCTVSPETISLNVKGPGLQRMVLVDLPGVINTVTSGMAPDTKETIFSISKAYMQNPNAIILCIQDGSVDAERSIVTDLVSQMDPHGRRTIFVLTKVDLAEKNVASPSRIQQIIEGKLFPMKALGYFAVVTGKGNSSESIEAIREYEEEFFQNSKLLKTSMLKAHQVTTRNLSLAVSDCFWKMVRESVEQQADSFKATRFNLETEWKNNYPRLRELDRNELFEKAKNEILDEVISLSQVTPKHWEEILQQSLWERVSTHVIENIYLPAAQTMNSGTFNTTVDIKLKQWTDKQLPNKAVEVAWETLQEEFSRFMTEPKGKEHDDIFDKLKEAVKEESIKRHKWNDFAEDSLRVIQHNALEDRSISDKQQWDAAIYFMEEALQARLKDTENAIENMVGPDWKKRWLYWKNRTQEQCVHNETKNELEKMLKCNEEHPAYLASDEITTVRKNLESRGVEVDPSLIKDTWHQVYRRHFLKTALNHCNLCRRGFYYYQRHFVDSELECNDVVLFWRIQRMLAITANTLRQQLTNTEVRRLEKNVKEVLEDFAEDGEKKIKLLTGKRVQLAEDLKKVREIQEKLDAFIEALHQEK

[5] = target: T4, Ras-related protein Rab-10 (Homo sapiens, UniProt P61026)
T4 sequence (P61026 whole entry): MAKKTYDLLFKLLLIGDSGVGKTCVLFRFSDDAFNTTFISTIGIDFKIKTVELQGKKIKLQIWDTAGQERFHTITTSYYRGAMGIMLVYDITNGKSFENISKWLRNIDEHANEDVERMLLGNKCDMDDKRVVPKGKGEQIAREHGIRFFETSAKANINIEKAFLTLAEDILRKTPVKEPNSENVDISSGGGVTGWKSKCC

[6] = target: T5, Uncharacterized protein FLJ45252 (Homo sapiens, UniProt Q6ZSR9); details: read-out: Kd apparent; k-562, colo 205, sk-n-be(2) and mv-4-11
T5 sequence (Q6ZSR9 whole entry): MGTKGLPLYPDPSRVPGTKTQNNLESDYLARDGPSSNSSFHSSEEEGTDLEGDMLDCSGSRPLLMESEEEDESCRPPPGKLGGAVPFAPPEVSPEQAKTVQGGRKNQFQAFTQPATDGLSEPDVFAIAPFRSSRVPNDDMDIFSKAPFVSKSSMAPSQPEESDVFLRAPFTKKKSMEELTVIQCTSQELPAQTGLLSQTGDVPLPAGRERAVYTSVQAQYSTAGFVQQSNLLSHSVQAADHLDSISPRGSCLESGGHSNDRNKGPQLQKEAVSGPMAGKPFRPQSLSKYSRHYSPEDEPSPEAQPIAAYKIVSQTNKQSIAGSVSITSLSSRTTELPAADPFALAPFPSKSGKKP
Note: in the data inactive means no Kd found up to 30 µM.

Chain of Myosin-14 (Q7Z406 whole entry): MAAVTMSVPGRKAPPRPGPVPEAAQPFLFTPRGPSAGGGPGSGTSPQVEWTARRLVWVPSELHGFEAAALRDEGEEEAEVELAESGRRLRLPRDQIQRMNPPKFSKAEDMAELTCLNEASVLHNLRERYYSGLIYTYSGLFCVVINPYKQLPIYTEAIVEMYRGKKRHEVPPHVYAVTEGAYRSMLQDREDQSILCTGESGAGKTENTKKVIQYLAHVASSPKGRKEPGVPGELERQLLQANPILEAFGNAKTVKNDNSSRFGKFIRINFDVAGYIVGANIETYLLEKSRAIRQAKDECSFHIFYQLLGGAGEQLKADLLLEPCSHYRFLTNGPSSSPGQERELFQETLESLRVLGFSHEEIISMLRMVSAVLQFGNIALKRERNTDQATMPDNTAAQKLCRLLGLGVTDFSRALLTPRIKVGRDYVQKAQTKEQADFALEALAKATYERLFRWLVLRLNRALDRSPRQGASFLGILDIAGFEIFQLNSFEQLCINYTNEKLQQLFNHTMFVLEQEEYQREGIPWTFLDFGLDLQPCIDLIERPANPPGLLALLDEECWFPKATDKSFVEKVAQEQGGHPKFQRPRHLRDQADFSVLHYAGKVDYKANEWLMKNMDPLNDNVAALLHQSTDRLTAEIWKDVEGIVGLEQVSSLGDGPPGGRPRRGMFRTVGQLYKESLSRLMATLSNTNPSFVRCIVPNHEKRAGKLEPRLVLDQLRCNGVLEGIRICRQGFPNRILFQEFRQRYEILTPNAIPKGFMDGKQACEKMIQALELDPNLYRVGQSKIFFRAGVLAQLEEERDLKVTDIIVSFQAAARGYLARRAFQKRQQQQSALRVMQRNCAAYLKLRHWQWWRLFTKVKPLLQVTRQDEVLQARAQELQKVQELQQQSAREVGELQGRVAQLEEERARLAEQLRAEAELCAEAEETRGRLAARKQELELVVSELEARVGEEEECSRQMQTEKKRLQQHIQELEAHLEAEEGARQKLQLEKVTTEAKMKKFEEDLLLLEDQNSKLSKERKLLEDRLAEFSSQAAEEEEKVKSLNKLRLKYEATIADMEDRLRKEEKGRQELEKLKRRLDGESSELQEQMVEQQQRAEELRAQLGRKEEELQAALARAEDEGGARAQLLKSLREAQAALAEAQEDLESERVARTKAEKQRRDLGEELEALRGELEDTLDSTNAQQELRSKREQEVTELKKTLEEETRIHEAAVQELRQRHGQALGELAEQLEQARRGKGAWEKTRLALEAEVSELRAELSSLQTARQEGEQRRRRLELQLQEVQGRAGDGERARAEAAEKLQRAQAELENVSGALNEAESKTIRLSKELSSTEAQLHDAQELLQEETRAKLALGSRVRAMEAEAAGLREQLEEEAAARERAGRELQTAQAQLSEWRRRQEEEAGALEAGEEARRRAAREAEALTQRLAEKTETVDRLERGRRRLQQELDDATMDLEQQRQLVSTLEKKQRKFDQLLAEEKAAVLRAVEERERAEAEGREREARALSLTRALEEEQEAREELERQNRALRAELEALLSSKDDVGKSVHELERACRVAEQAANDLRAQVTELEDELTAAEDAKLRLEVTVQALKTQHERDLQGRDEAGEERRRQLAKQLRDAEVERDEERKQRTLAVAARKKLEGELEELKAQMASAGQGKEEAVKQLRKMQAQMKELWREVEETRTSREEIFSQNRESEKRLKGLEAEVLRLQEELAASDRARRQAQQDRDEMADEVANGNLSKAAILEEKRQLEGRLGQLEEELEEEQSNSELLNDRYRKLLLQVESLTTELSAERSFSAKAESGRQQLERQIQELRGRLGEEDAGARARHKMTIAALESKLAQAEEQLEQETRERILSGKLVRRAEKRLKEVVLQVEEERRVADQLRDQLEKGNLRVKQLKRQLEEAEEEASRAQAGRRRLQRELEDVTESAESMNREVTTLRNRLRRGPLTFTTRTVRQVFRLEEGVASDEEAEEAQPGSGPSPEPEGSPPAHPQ

Kd [1] | Kd [2] | Kd [3] | Kd [4] | Kd [5] | Kd [6] | Compound
> 30 µM (inactive) | > 30 µM (inactive) | > 30 µM (inactive) | > 30 µM (inactive) | > 30 µM (inactive) | > 30 µM (inactive) | Cn1ncc(Cl)c1-c1cc(C(=O)N[C@H](CN)Cc2cccc(F)c2)sc1Cl [AFURESERTIB]
> 30 µM (inactive) | > 30 µM (inactive) | > 30 µM (inactive) | > 30 µM (inactive) | > 30 µM (inactive) | > 30 µM (inactive) | COC(=O)N[C@@H](C)CNc1nccc(-c2cn(C(C)C)nc2-c2cc(Cl)cc(NS(C)(=O)=O)c2F)n1 [ENCORAFENIB]
> 30 µM (inactive) | 3.53 µM (active) | > 30 µM (inactive) | > 30 µM (inactive) | > 30 µM (inactive) | > 30 µM (inactive) | CCN1CCN(Cc2ccc(-c3cc4c(N[C@H](C)c5ccccc5)ncnc4[nH]3)cc2)CC1 [AEE-788]
> 30 µM (inactive) | > 30 µM (inactive) | > 30 µM (inactive) | > 30 µM (inactive) | > 30 µM (inactive) | > 30 µM (inactive) | CNS(=O)(=O)Nc1nccc(Cc2c(C)c3ccc(Oc4ncccn4)cc3oc2=O)c1F [AVUTOMETINIB]
> 30 µM (inactive) | 1.85 µM (active) | > 30 µM (inactive) | > 30 µM (inactive) | > 30 µM (inactive) | > 30 µM (inactive) | O=C(O)[C@]1(Cc2cccc(Nc3nccs3)n2)CC[C@@H](Oc2cccc(Cl)c2F)CC1 [MK-5108]
> 30 µM (inactive) | > 30 µM (inactive) | > 30 µM (inactive) | > 30 µM (inactive) | > 30 µM (inactive) | > 30 µM (inactive) | CC(=O)Nc1cccc(-n2c(=O)n(C3CC3)c(=O)c3c(Nc4ccc(I)cc4F)n(C)c(=O)c(C)c32)c1 [TRAMETINIB]
> 30 µM (inactive) | > 30 µM (inactive) | > 30 µM (inactive) | > 30 µM (inactive) | > 30 µM (inactive) | > 30 µM (inactive) | CO[C@H]1C[C@@H]2CC[C@@H](C)[C@@](O)(O2)C(=O)C(=O)N2CCCC[C@H]2C(=O)O[C@H]([C@H](C)C[C@@H]2CC[C@@H](OCCO)[C@H](OC)C2)CC(=O)[C@H](C)/C=C(\C)[C@@H](O)[C@@H](OC)C(=O)[C@H](C)C[C@H](C)/C=C/C=C/C=C/1C [EVEROLIMUS]
> 30 µM (inactive) | > 30 µM (inactive) | > 30 µM (inactive) | > 30 µM (inactive) | > 30 µM (inactive) | > 30 µM (inactive) | C[C@@H](Nc1cc(F)cc(F)c1)c1cc(C(=O)N(C)C)cc2c(=O)cc(N3CCOCC3)oc12 [AZD-8186]
> 30 µM (inactive) | > 30 µM (inactive) | > 30 µM (inactive) | > 30 µM (inactive) | > 30 µM (inactive) | > 30 µM (inactive) | CN1N=C(N)c2cn([C@@H]3O[C@H](COP(=O)(O)O)[C@@H](O)[C@H]3O)c3ncnc1c23 [TRICIRIBINE PHOSPHATE]
> 30 µM (inactive) | > 30 µM (inactive) | > 30 µM (inactive) | > 30 µM (inactive) | > 30 µM (inactive) | > 30 µM (inactive) | O=c1sn(-c2cccc3ccccc23)c(=O)n1Cc1ccccc1 [TIDEGLUSIB]
> 30 µM (inactive) | > 30 µM (inactive) | > 30 µM (inactive) | > 30 µM (inactive) | > 30 µM (inactive) | > 30 µM (inactive) | CC(C)Nc1cc(-c2c[nH]c(C(=O)N[C@H](CO)c3cccc(Cl)c3)c2)c(Cl)cn1 [ULIXERTINIB]
> 30 µM (inactive) | > 30 µM (inactive) | > 30 µM (inactive) | > 30 µM (inactive) | > 30 µM (inactive) | > 30 µM (inactive) | Cn1cc(-c2ccc3nnc(C(F)(F)c4ccc5ncccc5c4)n3n2)cn1 [JNJ-38877605]
– | > 30 µM (inactive) | > 30 µM (inactive) | > 30 µM (inactive) | > 30 µM (inactive) | > 30 µM (inactive) | C[C@@H]1CN(Cc2ccc(F)cc2)[C@@H](C)CN1C(=O)c1cc2c(C(=O)C(=O)N(C)C)cn(C)c2cc1Cl [TALMAPIMOD]
> 30 µM (inactive) | 3.72 µM (active) | > 30 µM (inactive) | > 30 µM (inactive) | > 30 µM (inactive) | 0.052 µM (active) | C1=C/COCc2cc(ccc2OCCN2CCCC2)Nc2nccc(n2)-c2cccc(c2)COC/1 [PACRITINIB]
> 30 µM (inactive) | > 30 µM (inactive) | > 30 µM (inactive) | > 30 µM (inactive) | > 30 µM (inactive) | > 30 µM (inactive) | CNC(=O)CN1CCC(Oc2cc3c(Nc4cccc(Cl)c4F)ncnc3cc2OC)CC1 [SAPITINIB]
> 30 µM (inactive) | 0.578 µM (active) | > 30 µM (inactive) | > 30 µM (inactive) | > 30 µM (inactive) | > 30 µM (inactive) | COc1cc2nccc(Oc3ccc(NC(=O)NC4CC4)c(Cl)c3)c2cc1C(N)=O [LENVATINIB]
> 30 µM (inactive) | > 30 µM (inactive) | > 30 µM (inactive) | > 30 µM (inactive) | > 30 µM (inactive) | > 30 µM (inactive) | N[C@@H]1CCCN(c2c(/C=C3\SC(=O)NC3=O)cccc2-c2ccccc2)C1

Compound | Kd [1] | Kd [2] | Kd [3] | Kd [4] | Kd [5] | Kd [6]
CN1CC[C@@H](c2c(O)cc(O)c3c(=O)cc(-c4ccccc4Cl)oc23)[C@@H]1CO | > 30 µM (inactive) | > 30 µM (inactive) | > 30 µM (inactive) | > 30 µM (inactive) | > 30 µM (inactive) | > 30 µM (inactive)
